Reference: US20180305334A1, “COMPOUNDS, COMPOSITIONS AND METHODS OF USE AGAINST STRESS GRANULES” (Aquinnah Pharmaceuticals, Inc., priority 2015, published 2018)

Tests used:
Type in all cases: cell-based
[1] = system: TDP-43 inclusions in PC12 cells stably expressing wild type (WT) TDP-43-GFP; test: Dose response assay for TDP-43 inhibition; settings: Rattus norvegicus, PC-12, inhibition of TDP-43 inclusions, stressed with 15 μM, 12-point dose response
Experimental: Exemplary compounds of the invention were evaluated for efficacy in inhibiting TDP-43 inclusions using a dose response assay. Briefly, PC12 cells stably expressing wild type (WT) TDP-43-GFP were stressed with 15 μM to induce TDP-43 inclusions. The cells were then treated with exemplary compounds of the invention and the inhibitory effect on TDP-43 inclusions was observed using fluorescent microscopy. The ratio of cells with TDP-43 inclusions was calculated based on the total number of cells with detectable GFP expression. A 12-point dose response curve was generated, and the IC50 for each compound tested was determined.

[2] = system: Embryonic mouse hippocampal neurons transduced with AAV1 EGFP, WT TDP-43 EGFP, A315T TDP-43 EGFP, or Q331K TDP-43 EGFP; test: Neuroprotection assay; settings: average rescue total dendrite length; neurons treated DIV7, 9, 11 at 10 times the IC50 value; fixed DIV12
Experimental: CMF dissection buffer: 1× Hank's balanced salt solution (Ca—/Mg, 500 mL) and 10 mM HEPES, pH 7.25-7.3 (1M stock, 5 mL)
Plating media: MEM (Earle salts+/Glutamine, 95 mL), FBS (to 2.5%, 2.5 mL), Pen/Strep (lx, 1 mL), glutamine (lx, 1 mL), and D-glucose (0.6% w/v, 0.6 g)
Feeding media: neurobasal media (96 mL), B27 supplement (2 mL), Pen/Strep (1 mL), and glutamine (1 mL).
Embryonic mouse hippocampal neurons were cultured according to Kaech, S. and Banker, G. (2006) Nat Protoc 1:2406-2415 and dissected at PO from CD1 mice. Once all the hippocampi were removed, they were placed in a 15 mL conical Falcon tube on ice and brought to a final volume of 4.5 mL with CMF dissection buffer. 0.5 mL of a 2.5% trypsin-EDTA solution was then added, and the mixture was incubated at 37° C. for 15 min. The trypsin solution was gently removed, leaving the tissue at the bottom of the Falcon tube. 5 mL CMF dissection buffer was then added, and after gentle mixing, the tissue was allowed to sediment. This procedure was repeated three times. The hippocampi were then dissociated by adding 1.8 mL platting media and repeatedly pipetting in a glass Pasteur pipette; the dissociation process was repeated 5-10 times. The cells were then passed through a 70 um cell strainer into a 50 mL conical tube to remove clumps and debris, and the neurons were plated on glass coverslips coated with poly-D-lysine/laminin. On DIV 1 neurons were transduced with AAV1 EGFP, WT TDP-43 EGFP, A315T TDP-43 EGFP, or Q331K TDP-43 EGFP. […] Neurons were traced and analyzed using NeuronJ.
Results of the neuroprotection assay for exemplary compounds of the invention are summarized in Table 2, wherein A represents an average rescue total dendrite length of >150%; B represents an average rescue total dendrite length of 100-149%; C represents an average rescue total dendrite length of 50-99%; D represents an average rescue total dendrite length of 0-49%; E represents an average rescue total dendrite length of <0%; and ND signifies that the average rescue total dendrite length was not determined.

[3] = system: TDP-43 aggregation in PC12 cells stably expressing TDP-43^Q331K::eGFP; test: In vitro efficacy assay, TDP-43 aggregation concentration-response; settings: Rattus norvegicus, PC-12, inhibition of TDP-43 aggregation; PC12 TDP-43^Q331K::eGFP, 1 hour pre-treatment, 15 μM sodium arsenite for 23 hours; 10-point dose response
In short: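 PC12 cells stably expressing TDP-43^Q331K::eGFP pre-treated with compound for 1 h, then stressed with 15 μM sodium arsenite for 23 h. Fluorescence microscopy scored the fraction of GFP-positive cells carrying TDP-43 aggregates across compound concentrations.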

Row | Compound | IC50 [1] | Average Additive Dendrite Length (%) [2] | IC50 [3]
1 | COc1cc(NC(=O)CCC2CCCN(Cc3ccc(F)c(OC)c3)C2)cc(OC)c1 (stereo not shown) [Compound 100, N-(3,5-dimethoxyphenyl)-3-(1-(4-fluoro-3-methoxybenzyl)-piperidin-3-yl)propanamide] | 0.101 to 0.25 µM | E (E represents an average rescue total dendrite length of <0%) | –
2 | CCN(CC1CCCN(CCc2cccc(OC)c2)C1)C(=O)c1cc2ccccc2[nH]1 (stereo not shown) [Compound 101, N-ethyl-N-((1-(3-methoxyphenethyl)piperidin-3-yl)methyl)-1H-indole-2-carboxamide] | 0.101 to 0.25 µM | C (C represents an average rescue total dendrite length of 50-99%) | < 1.5 µM
3 | COc1ccccc1OCC(=O)NC1CCCN(c2nc3ccccc3s2)C1 (stereo not shown) [Compound 102, N-(1-(benzo[d]thiazol-2-yl)piperidin-3-yl)-2-(2-methoxyphenoxy)acetamide] | 0.251 to 0.5 µM | B (B represents an average rescue total dendrite length of 100-149%) | –
